Measured values reported in PMC11087982, “In vitro and in vivo activities of a trithiolato-diRuthenium complex conjugated with sulfadoxine against the apicomplexan parasite Toxoplasma gondii” (International Journal for Parasitology: Drugs and Drug …, 2024).
“Also recorded” adds a separate entry of the source. Read-outs that look alike come from different tables or passages of the source.

What was measured:
[1] = test system: T. gondii Me49 tachyzoites; assay: Long-term treatment of infected HFF to test static or cidal effect; format: cell-based, Toxoplasma gondii; details: 0.5 μM
Procedure: On day 0, the HFF monolayers were infected with 5 × 10^5 T. gondii Me49 tachyzoites. At 4 h post infection (p.i.) the medium was removed, flasks were washed twice with sterile PBS and fresh medium containing either RU-SDX at 0.25 μM or 0.5 μM, or DMSO (0.05%) as a negative control, were added. Treatments were applied during 3 and 6 days and cultures were maintained in normal DMEM complete media and examined light microscopically daily. After drug removal, flasks were also monitored microscopically daily for one week.

HFF = HFF host cell cytotoxicity, Alamar blue viability assay; format: cell-based, human; details: 72 h, uninfected HFF
Procedure: To determine cytotoxicity of compounds on host cells, HFF were grown to confluency in 96 well plates and were treated with different concentrations of the drugs solubilized in medium during 72 h at 37 °C/5% CO2, or were treated with the corresponding concentration of DMSO only ([Desiatkina et al., 2020]; [Holzer et al., 2023]; [Păunescu et al., 2021]). The Alamar blue viability assay was used as previously described ([Desiatkina et al., 2020], [2021], [2022a], [2022b]; [Holzer et al., 2023]; [Păunescu et al., 2021]). In short, resazurin was added to each well at 0.01 mg/ml, and subsequently fluorescence of the produced resorufin was measured at excitation wavelength 544/20 nm and emission wavelength 590/20 nm using a Hidex Sense microplate reader (Hidex, Turku, Finland).

Non-infected HFF = assay: TMRE uptake assay (mitochondrial membrane potential), non-infected HFF; format: cell-based, human; details: 0.5 μM, 3.5 h
Procedure: (§1) 5 × 10^5 HFF were seeded into T25 culture flasks in DMEM complete medium and maintained in culture for 72 h to reach ⁓80% confluency. HFF monolayers were left either non-infected or were infected with 2 × 10^5 T. gondii Me49 tachyzoites. After another 48 h, the medium was removed from infected and non-infected T25 flasks and was replaced either by medium containing 0.5 μM RU-SDX, or in the case of non-treated controls, medium containing 0.05% DMSO. As positive controls, the two mitochondrial uncouplers FCCP and CCCP were applied at a concentration of 80 and 50 μM, respectively. PYR was applied at 0.5 μM as a control drug not affecting the MMP, and RU-adenine, used as a conjugate shown earlier to impact on the mitochondrial ultrastructure in T. gondii ([Anghel et al., 2021]; [Desiatkina et al., 2022b]), was also tested at 0.5 μM ([Anghel et al., 2021]; [Desiatkina et al., 2022b]). […] Fluorescence was measured using a Hidex Sense microplate reader instrument ([…]) with the excitation wavelength 544/20 nm and emitted light collected at 590/20 nm. Value from wells belonging to the same experimental condition were summed and the mean TMRE uptake in each condition was calculated from three biological replicates.

T. gondii-infected HFF = assay: TMRE uptake assay (mitochondrial membrane potential), T. gondii-infected HFF; format: cell-based, Toxoplasma gondii Me49 in human HFF; details: 0.5 μM, 3.5 h
Procedure: as §1

[2] = test system: T. gondii Me49 tachyzoites; assay: Transmission electron microscopy of treated tachyzoites in HFF; format: cell-based, Toxoplasma gondii; details: 0.5 μM, 6 h of treatment
Procedure: We examined the cellular ultrastructure of T. gondii tachyzoites treated with RU-SDX by TEM as described previously ([Anghel et al., 2021]; [Desiatkina et al., 2020]). Briefly, confluent HFF grown in T25 flasks were infected with 10^5 T. gondii Me49 tachyzoites, and infected cultures were maintained for 24 h at 37 °C/5% CO2. Subsequently, the medium was removed and medium containing 0.5 μM RU-SDX or 0.05% DMSO (as solvent control) was added, and cultures were maintained at 37 °C/5% CO2 during 6, 24 or 48 h. At the different timepoints the samples were fixed and processed for TEM ([Anghel et al., 2021]; [Desiatkina et al., 2020]). For this, cultures were washed with 0.1 M sodium cacodylate buffer (pH 7.3) and fixed in 2% glutaraldehyde in cacodylate buffer for 10 min at room temperature (RT). The fixed infected monolayers were gently scraped from the flasks, transferred into Eppendorf tubes, washed with in ice-cold 0.1 M sodium cacodylate buffer and fixed in 2% glutaraldehyde in cacodylate buffer for 2 h at RT. Further preparation steps included post-fixation in 2% osmium tetroxide, pre-staining, stepwise dehydration in ethanol, and embedding in Epon-812 resin. In some instances, T25 flasks containing HFF monolayers infected with T. gondii Me49 tachyzoites were treated with FCCP and CCCP for 10 min at 80 and 50 μM, respectively, and samples were prepared for TEM as described above. […]

[3] = Formulation of the compound for oral gavage (precipitation); format: physicochemical; details: compared with 5 mg/kg in corn oil containing 10% DMSO; data not shown
Procedure: A preliminary in vivo study was conducted in outbred CD1 mice that were experimentally infected with TgShSp1 oocysts.

[4] = test system: T. gondii β-gal tachyzoites; details: cited from earlier work

With `CC(C)(C)c1ccc(C[S-])cc1.CC(C)(C)c1ccc(C[S-])cc1.COc1ncnc(NS(=O)(=O)c2ccc(NC(=O)Cc3ccc([S-])cc3)cc2)c1OC.Cc1ccc(C(C)C)cc1.Cc1ccc(C(C)C)cc1.[Cl-].[Ru+2].[Ru+2]` [RU-SDX] the “parasiticidal or parasitostatic action in vitro” value ([1]; 3 and 6 days treatment) was “parasitostatic but not parasiticidal; also recorded: did not act parasiticidal”, the “tachyzoite re-emergence after removal of the drug” value ([1]; 6 days of continuous treatment, then culture without compound) was at most 4 days and the “viability (% of control ± SD)” value (HFF; 2.5 μM) was 79 ± 4%. For the same molecule, the “viability (% of control ± SD)” value (HFF; 5 μM) was 64 ± 4%, the “viability (% of control ± SD)” value (HFF; 10 μM) was 31 ± 9% and the “TMRE fluorescence intensity / TMRE uptake (percentage of non-treated control = 100%)” value (Non-infected HFF) was 140%. For the same molecule, the “TMRE fluorescence intensity / TMRE uptake (percentage of non-treated control = 100%)” value (T. gondii-infected HFF) was 130%, the “ultrastructural changes in tachyzoites (TEM)” value [2] was “mitochondrial matrix appeared to have lost its characteristic electron dense texture in many areas” and the “behaviour at higher concentrations or in other vehicles (PBS ± DMSO, H2O ± DMSO, H2O + propane-1,2-diol)” value [3] was “precipitation”. For the same molecule, the “proliferation (% of control ± SD)” value ([4]; 1 μM, ref Desiatkina et al., 2021) was “^b^, ^∗∗∗11 ± 1%”, the “proliferation (% of control ± SD)” value ([4]; 1.1 μM, ref Desiatkina et al., 2021) was “^b^,*116 ± 1%” and the “proliferation (% of control ± SD)” value ([4]; 1.25 μM, ref Desiatkina et al., 2021, Păunescu et al.) was “^b^, ^a0 ± 0%”.
